In publication PMC6835763, “Influence of Short Cationic Lipopeptides with Fatty Acids of Different Chain Lengths on Bacterial Biofilms Formed on Polystyrene and Hydrogel Surfaces” (Pharmaceutics, 2019):
Converted amounts (≈) assume the structure as drawn. “And” between values parts separate entries of the source, which are not always exact repeats. Equal entries are not always repeated. Where a SMILES comes first, the peptide text is derived from it. Bridges are numbered along the chain shown (N, C = ends). Roman numbers before positions name the chains, in order. The star is where a group is joined. Palmitoyl = CCCCCCCCCCCCCCCC(=O)*; Myristoyl = CCCCCCCCCCCCCC(=O)*

What was measured:
Type in all cases: cell-based
[1] = test system: Staphylococcus epidermidis ATCC 14990; conditions: ATCC 14990, 18 h
Experimental: (§1) The reference strains of gram-positive and gram-negative bacteria (Table 2) were obtained from the Polish Collection of Microorganisms (Polish Academy of Science, Wroclaw, Poland). The microorganisms were cultured in Muller Hinton Broth II (MHB II, Biocorp, Warsaw, Poland), overnight, at 37 °C. The MICs of synthetic lipopeptides and conventional antimicrobials were determined using the broth microdilution method according to the Clinical and Laboratory Standard Institute (CLSI) guidelines on reference strains. […] The PS were incubated under aerobic conditions at 37 °C for 18 h. The MIC (μg/mL) was assumed as the lowest concentration of the compound that inhibited the growth of the microorganisms. All experiments were performed in triplicate and included the growth and sterility controls.

[2] = test system: Proteus mirabilis PCM 543; conditions: PCM 543, 18 h
Experimental: as §1

[3] = test system: Staphylococcus aureus ATCC 25923; conditions: ATCC 25923, 18 h
Experimental: as §1

[4] = test system: Escherichia coli ATCC 25922; conditions: ATCC 25922, 18 h
Experimental: as §1

[5] = test system: Pseudomonas aeruginosa ATCC 9027; conditions: ATCC 9027, 18 h
Experimental: as §1

[6] = test system: Enterococcus faecalis ATCC 29212; conditions: ATCC 29212, 18 h
Experimental: as §1

[7] = test system: Staphylococcus epidermidis ATCC 14990; experiment: MBFIC assay (biofilm formation inhibition, resazurin); conditions: ca. 5 × 10^8 CFU/mL in MHB II, 37 °C, 18 h, resazurin, visual, triplicate; for MBFIC S. epidermidis, CL: contact lenses (CL, Etafilcon A hydrogel) in 24-well plates; for MBFIC S. epidermidis, PS: polystyrene plates (PS), 96-well
Experimental: (§2) To determine the inhibitory effect of antimicrobials on the formation of biofilm on hydrophobic surfaces, the bacterial suspensions of strains (initial inoculum of ca. 5 × 10^8 CFU/mL in MHB II medium supplemented with antimicrobials) were cultured on 96-well PS at 37 °C for 18 h under aerobic conditions. After incubation, the suspensions were aspirated, and the wells were rinsed three times with sterile phosphate buffer PBS (AppliChem, Darmstadt, Germany) in order to remove the planktonic cells. Resazurin (final concentration per sample = 0.005%) was applied as a cell viability reagent for reading the results. In contact with the living cells, the dye is metabolized by bacterial dehydrogenases, resulting in a reduction of blue resazurin to pink resorufin. All assays were performed in triplicate and included the growth controls (positive controls: bacterial suspensions without antimicrobials) and the sterility controls (negative controls: a sterile MBH medium). After 1h of incubation, a visual evaluation of results was made. […] In a preliminary study, it was established that the application of lipopeptides at a concentration found active from visual evaluation caused the reduction of bacterial metabolism to approximately 10% (or less) of the positive control once the results were evaluated with a spectrophotometer. After 1 h of incubation with the dye, absorbance was measured at 570 and 600 nm using a microplate reader (Thermo Fisher Scientific, Waltham, MA, USA). The metabolic activity of bacteria in the samples was measured according to the formula presented in the previous paper.
(§3) The MBFIC assay with CL was applied in order to access the influence of lipopeptides on the biofilm formation on hydrogel surfaces. The entire sterile CL (1-Day Acuvue Moist, containing Etafilcon A., purchased from Johnson & Johnson (Vision Care, Jacksonsville, FL, USA), were placed in 24-well PS (Orange Scientific, Braine-l’ Alleud, Belgium) and the MBFICs were determined according to the above protocol.

[8] = test system: Proteus mirabilis PCM 543; experiment: as above; conditions: ca. 5 × 10^8 CFU/mL in MHB II, 37 °C, 18 h, visual, triplicate; for MBFIC P. mirabilis, CL: contact lenses (CL, Etafilcon A hydrogel) in 24-well plates; for MBFIC P. mirabilis, PS: polystyrene plates (PS), 96-well
Experimental: as §2, §3

[9] = test system: Staphylococcus aureus ATCC 25923; experiment: as above; conditions: ca. 5 × 10^8 CFU/mL in MHB II, 37 °C, 18 h, resazurin, visual, triplicate; for MBFIC S. aureus, CL: contact lenses (CL, Etafilcon A hydrogel) in 24-well plates; for MBFIC S. aureus, PS: polystyrene plates (PS), 96-well
Experimental: as §2, §3

[10] = test system: Escherichia coli ATCC 25922; experiment: as above; conditions: ca. 5 × 10^8 CFU/mL in MHB II, 37 °C, 18 h, visual, triplicate; for MBFIC E. coli, CL: contact lenses (CL, Etafilcon A hydrogel) in 24-well plates; for MBFIC E. coli, PS: polystyrene plates (PS), 96-well
Experimental: as §2, §3

[11] = test system: Pseudomonas aeruginosa ATCC 9027; experiment: as above; conditions: ca. 5 × 10^8 CFU/mL in MHB II, 37 °C, 18 h, visual, triplicate; for MBFIC P. aeruginosa, CL: contact lenses (CL, Etafilcon A hydrogel) in 24-well plates; for MBFIC P. aeruginosa, PS: polystyrene plates (PS), 96-well
Experimental: as §2, §3

[12] = test system: Enterococcus faecalis ATCC 29212; experiment: as above; conditions: ca. 5 × 10^8 CFU/mL in MHB II, 37 °C, 18 h, visual, triplicate; for MBFIC E. faecalis, CL: contact lenses (CL, Etafilcon A hydrogel) in 24-well plates; for MBFIC E. faecalis, PS: polystyrene plates (PS), 96-well
Experimental: as §2, §3

[13] = test system: Staphylococcus epidermidis ATCC 14990; conditions: ATCC 14990, 24 h
Experimental: (§4) The biofilms of bacteria associated with the biofilm-related infections were cultured on 96-well flat bottom PS and on CL placed in 24-well plates. The bacteria at initial inoculums of 5 × 10^8 CFU/mL in MHB II were added to the plates and incubated at 37 °C under aerobic conditions. After 24 h of incubation, all cultures were rinsed three times with PBS and fresh medium was added. Subsequently, the obtained biofilm cultures were exposed to solutions of antimicrobials applied at graded concentrations ranging from 1 to 512 μg/mL for 24 h at 37 °C. The anti-biofilm activity of antimicrobials was visualized by resazurin (final concentration per sample = 0.005%) in the same way as in the MBFIC assay. All experiments were performed in triplicate and included growth controls (positive control: bacterial suspension without antimicrobials) and sterility controls (negative controls: sterile MBH II medium).

[14] = test system: Proteus mirabilis PCM 543; conditions: PCM 543, 24 h
Experimental: as §4

[15] = test system: Staphylococcus aureus ATCC 25923; conditions: ATCC 25923, 24 h
Experimental: as §4

[16] = test system: Escherichia coli ATCC 25922; conditions: ATCC 25922, 24 h
Experimental: as §4

[17] = test system: Pseudomonas aeruginosa ATCC 9027; conditions: ATCC 9027, 24 h
Experimental: as §4

[18] = test system: Enterococcus faecalis ATCC 29212; conditions: ATCC 29212, 24 h
Experimental: as §4

MIC S. epidermidis [1] [µg/mL] | MIC P. mirabilis [2] [µg/mL] | MIC S. aureus [3] [µg/mL] | MIC E. coli [4] [µg/mL] | MIC P. aeruginosa [5] [µg/mL] | MIC E. faecalis [6] [µg/mL] | Compound | MBFIC S. epidermidis, CL [7] [µg/mL] | MBFIC S. epidermidis, PS [7] [µg/mL] | MBFIC P. mirabilis, CL [8] | MBFIC P. mirabilis, PS [8] | MBFIC S. aureus, CL [9] [µg/mL] | MBFIC S. aureus, PS [9] [µg/mL] | MBFIC E. coli, CL [10] | MBFIC E. coli, PS [10] | MBFIC P. aeruginosa, CL [11] | MBFIC P. aeruginosa, PS [11] | MBFIC E. faecalis, CL [12] | MBFIC E. faecalis, PS [12] | MBEC S. epidermidis, CL [13] [µg/mL] | MBEC P. mirabilis, CL [14] | further results
4 (≈ 3.41 µM) | 512 (≈ 437 µM) | 32 (≈ 27.3 µM) | 64 (≈ 54.6 µM) | 128 (≈ 109 µM) | 16 (≈ 13.7 µM) | CCCCCCCCCCCCCC(=O)N[C@@H](CCCCN)C(=O)N[C@@H](CCCCN)C(=O)N[C@@H](CSSC[C@H](NC(=O)[C@H](CCCCN)NC(=O)[C@H](CCCCN)NC(=O)CCCCCCCCCCCCC)C(N)=O)C(N)=O [Lipopeptide 3, C14-KKC-NH2] (I: Myristoyl-Lys-Lys-Cys-NH2 / II: Myristoyl-Lys-Lys-Cys-NH2; disulfide I:3-II:3) | 32 | 64 | 512/512 μg/mL | 512/512 μg/mL | 32 | 64 | 64 µg/mL | 256 µg/mL | 512/512 μg/mL | 512/512 μg/mL | 64 µg/mL | 256 µg/mL | 512 | 512/>512 μg/mL | MBEC S. aureus, CL [15]: 128/128 μg/mL; MBEC E. coli, CL [16]: 512/512 μg/mL; MBEC P. aeruginosa, CL [17]: > 512 µg/mL; MBEC E. faecalis, CL [18]: 256/256 μg/mL
8 (≈ 14.8 µM) | 512 (≈ 948 µM) | 32 (≈ 59.3 µM) | 64 (≈ 119 µM) | 128 (≈ 237 µM) | 64 (≈ 119 µM) | CCCCCCCCCCCCCCCC(=O)N[C@@H](CCCCN)C(=O)N[C@@H](CCCNC(=N)N)C(N)=O [Lipopeptide 8, C16-KR-NH2] (Palmitoyl-Lys-Arg-NH2) | 32 | 16 | 512/512 μg/mL | 512/512 μg/mL | 16 | 8 | 64 μg/mL and 64/64 μg/mL | 64 μg/mL and 64/64 μg/mL | 128 µg/mL | 512 µg/mL | 64/64 μg/mL | 64/64 μg/mL | 32 | > 512 µg/mL | MBEC S. aureus, CL [15]: 128 µg/mL; MBEC E. coli, CL [16]: 128 µg/mL; MBEC P. aeruginosa, CL [17]: 32 µg/mL; MBEC E. faecalis, CL [18]: 64/64 μg/mL
